Data reported in patent publication US5773005A, “Purified flavonoid and diterpene 5α-reductase inhibitors from thuja orientalis for androgen-related diseases” (priority 1995, dated 1998).

Columns and labels:
[1] = test system: male pattern baldness in stage V; assay: Therapeutic effect on male pattern baldness in stage V, scored (Example 10); assay type: in vivo, human; parameters: key: 10: alopecic area decreased to 1/5 or less and hair density increased by 2/3 or more; 7: alopecic area decreased to 1/3 or less and hair density increased by 1/3 or more; 4: alopecic area decreased to 1/2 or less and hair density increased by 1/5 or more; alopecic area decreased by 20% and hair density increased by 10% or more; 1: alopecic area hardly changed but hair density increased definitely; 0: no change at all; details: formula with 1% diterpene, twice a day; for Score, 0 mo.: 0 months; for Score, 1 mo.: 1 month; for Score, 2 mo.: 2 months; for Score, 4 mo.: 4 months; for Score, 6 mo.: 6 months
Description: Diterpenes of the invention were evaluated for their therapeutic effects on male pattern baldness in stage V. The curatives were prepared in accordance with the formula set forth in Table 11. | Ethanol 50% | Propylene glycol | 10% | HCO-60 3% | Diterpene 1% | Purified water | 36% The curatives were applied to the bald area of male volunteers (aged 27-45) in five groups each consisting of 5 cases. The application was done daily on a twice-a-day basis and continued for 6 months. The therapeutic efficacy was evaluated by the following criteria based on the decrease in the area of the parietal alopecic lesion and the density of regrowing hairs: 10 (alopecic area decreased to 1/5 or less and hair density increased by 2/3 or more); 7 (alopecic area decreased to 1/3 or less and hair density increased by 1/3 or more); 4 (alopecic area decreased to 1/2 or less and hair density increased by 1/5 or more); 2 (alopecic area decreased by 20% and hair density increased by 10% or more); 1 (alopecic area hardly changed but hair density increased definitely); 0 (no change at all).

acne patients = assay: Treatment of acne patients with diterpene lotion, scored (Example 9); assay type: in vivo, human; details: lotion with 1% diterpene, twice a day, group score of 6 patients (3 cured completely, 2 half cured, 1 cured 30%, 0 not cured), highest 18; for Score, 1 mo.: 1 month; for Score, 2 mo.: 2 months
Description: Patients in their twenties who were suffering from acne were divided into five groups each consisting of 3 males and 3 females and treated with a lotion of the following formula prepared in accordance with the invention. |Ethanol 50% |1,3-Butylene glycol | 20% |HCO-60 3% |Diterpene 1% |Purified water 26% The lotion was applied to the diseased part of a patient's face after washing with takallophene soap and the treatment was conducted daily on a twice-a-day basis for a period of 2 months. The acne in each patient was diagnosed as being moderate and a mixture of comedones (primarily whiteheads), papules and pustules. The results were evaluated by the following criteria: 3, cured completely; 2, half cured; 1, cured 30%; 0, not cured. The highest score was 18 and the lowest score was 0.

[2] = test system: androgen-dependent human prostatic cancer strain HONDA; assay: Growth control of androgen-dependent human prostatic cancer strain HONDA in nude mice (Example 15); assay type: in vivo, human (transplanted in BALB/CA-nu/nu mice); details: once a day, 28 days; for control of tumor growth (HONDA): peroral in 0.5% CMC
Description: Seven-week old BALB/CA-nu/nu mice were transplanted with androgen-dependenthuman prostatic cancer strain HONDA beneath the dorsal skin and 6-week old BALB/CA-nu/nu mice were transplanted with androgen-dependent rat prostatic cancer strain […] beneath the dorsal skin. When the respective tumors grew to a specified size, the animals were divided into test and control groups. The test groups were administered with suspensions of trans-communic acid and flutamide in 0.5% CMC. The control groups were administered with 0.5% CMC alone. The drugs and the vehicle were administered perorally via an oral probe. The administration was repeated daily for 28 consecutive days on a once-a-day basis. The tumor volume (mm^3) was calculated by the formula of major axis (mm) × the square of minor axis (mm^2)/2.

male hirsute volunteers = assay: Suppression of hair regrowth in male hirsute volunteers, wax-depilated inferior limbs (Example 5); assay type: in vivo, human; details: 1% in 50% alcohol
[3] = test system: male pattern baldness in stage V; assay: Efficacy against male pattern baldness in stage V, male volunteers (Example 4); assay type: in vivo, human; details: 1% in 50% alcohol, twice a day, 4 months
Description: The 5α-reductase inhibitors extracted from Thuja orientalis were examined for their efficacy against male pattern baldness in stage V. The test samples were components A, B and C, as well as the terpenoid isolated from component A and the (iso)scutellarein isolated from component B, which were each dissolved at a concentration of 1% in 50% alcohol. These samples were daily applied on a twice-a-day basis for a period of 4 months to the bald heads of 27-45 year old male volunteers in five groups each consisting of 5 cases.

[4] = test system: women suffering from idiopathic hirtuism; assay: Women suffering from idiopathic hirsutism, depilated right forearm (Example 14); assay type: in vivo, human; details: 0.1% in 50% ethanol, twice a day
Description: Five women (aged 20-35) suffering from idiopathic hirtuism were treated with 0.1% trans-communic acid in 50% ethanol that was applied daily to a wax depilated area of the right forearm on a twice-a-day basis. Depilation was repeated every other month until the end of the experiment.
Measurements were conducted on the hairs attached to the cloth used for wax depilation.

[5] = test system: androgen-dependent rat prostatic cancer strain R3327-G; assay: Growth control of androgen-dependent rat prostatic cancer strain R3327-G in nude mice (Example 15); assay type: in vivo, rat (transplanted in BALB/CA-nu/nu mice); details: castrated mice given 25 mg testosterone enanthat per head; peroral, once a day, 28 days
Description: Seven-week old BALB/CA-nu/nu mice were transplanted with androgen-dependenthuman prostatic cancer strain HONDA beneath the dorsal skin and 6-week old BALB/CA-nu/nu mice were transplanted with androgen-dependent rat prostatic cancer strain R3327-G beneath the dorsal skin. When the respective tumors grew to a specified size, the animals were divided into test and control groups. The test groups were administered with suspensions of trans-communic acid and flutamide in 0.5% CMC. The control groups were administered with 0.5% CMC alone. The drugs and the vehicle were administered perorally via an oral probe. The administration was repeated daily for 28 consecutive days on a once-a-day basis. The tumor volume (mm^3) was calculated by the formula of major axis (mm) × the square of minor axis (mm^2)/2.
The growth of cancer strain R3327-G was not controlled in castrated mice when they were administered 25 mg of testosterone enanthat per head concurrently with the cancer transplantation.

hirsute male volunteers = assay: Hair regrowth on wax-depilated legs of hirsute male volunteers (Example 13); assay type: in vivo, human; details: 0.1% in 50% ethanol, twice a day, 3 months, control section indistinguishable from surrounding area
Description: An experiment was conducted on 5 hirsute male volunteers aged 25-48. The center of each straight leg was depilated with wax to create a lesion about 2 cm wide and 3 cm long. […] The application was done daily on a twice-a-day basis for 3 consecutive months.

Compound | Score, 0 mo. [1] | Score, 1 mo. [1] | Score, 2 mo. [1] | Score, 4 mo. [1] | Score, 6 mo. [1] | Score, 1 mo. (acne patients) | Score, 2 mo. (acne patients) | control of tumor growth (HONDA) [2] | other results
CC(C)C(=O)Nc1ccc([N+](=O)[O-])c(C(F)(F)F)c1 [Flutamide, reference compound] | 0 | 1 | 2 | 2 | 4 | 4 | 8 | effective in tumor control | efficacy of flutamide relative to trans-communic acid (HONDA) ([2]; peroral): considerably weaker than that of trans-communic acid
C=C/C(C)=C/CC1C(=C)CCC2C(C)(CO)CCCC12C (stereo not drawn) [Sample III, (E)8(17),12,14-labdatrien-19-ol] | 0 | 0 | 4 | 7 | 10 | 9 | 18 | – | –
C=C/C(C)=C/CC1C(=C)CCC2C(C)(C)CCCC12C (stereo not drawn) [Sample II, (E)8(17),12,14-labdatriene] | 0 | 1 | 4 | 7 | 10 | 10 | 18 | – | –
(iso)scutellarein | – | – | – | – | – | – | – | – | regrowth of hair as compared to the control section (male hirsute volunteers; topical, control 50% alcohol alone): significantly suppressed; regrowth of hair in the test sections when the experiment ended (male hirsute volunteers; 3 months): barely recognizable; regrowth of hair [3]: pronounced regrowth of hair
C=C/C(C)=C/CC1C(=C)CCC2C(C)(C(=O)O)CCCC12C (stereo not drawn) [Sample I, (E)8(17),12,14-labdatrien-19-oic acid] | 0 | 1 | 4 | 7 | 10 | 8 | 18 | could control the growth of this cancer significantly in a dose-dependent manner | tumor size at 20 mg/kg vs flutamide 200 mg/kg (HONDA) ([2]; trans-communic acid 20 mg/kg, peroral): almost comparable to that of the group administered with 200 mg/kg of flutamide; Hair length (peaked at), sixth measurement, case A ([4]; case A, before treatment: peaked at ca. 10 mm): ca. 10 mm; Hair density, sixth measurement, case A ([4]; case A, before treatment: thick): sparse; Hair length, sixth measurement, case B ([4]; case B, before treatment: peaked at ca. 6 mm): ca. 1 mm; Hair density, sixth measurement, case B ([4]; case B, before treatment: thick): a few; Hair length, sixth measurement, case D ([4]; case D, before treatment: peaked at ca. 8 mm): ca. 2 mm; Hair density, sixth measurement, case D ([4]; case D, before treatment: thick): a few; control of tumor growth (R3327-G) [5]: could effectively control the growth of cancer in a dose-dependent manner; efficacy relative to flutamide (R3327-G) [5]: considerably stronger than that of flutamide; Regrowth of hair, test section, case A (hirsute male volunteers; case A): No regrowth of hair; Regrowth of hair, test section, case B (hirsute male volunteers; case B): No regrowth of hair; Regrowth of hair, test section, case C (hirsute male volunteers; case C): Regrowth of a few hair; Regrowth of hair, test section, case D (hirsute male volunteers; case D): No regrowth of hair; Regrowth of hair, test section, case E (hirsute male volunteers; case E): No regrowth of hair
